Results: US8067611B2, “Substituted 1-(thiazolyl)-and 1-(isothiazolyl)pyrazol-4-ylacetic acids, processes for their preparation and their use as herbicides and plant growth regulators” (Bayer CropScience AG, priority 2008, dated 2011)

How the values were obtained:
harmful plants = experiment: Pre-emergence herbicidal effect, greenhouse pot test; assay type: in vivo; conditions: application rate of 1 kg or less of active substance per hectare, scored after about 3 weeks
Excerpt: Seeds of monocotyledonous or dicotyledonous weed plants or crop plants are planted in wood-fiber pots in sandy loam and covered with soil. The compounds (I) according to the invention, formulated in the form of wettable powders (WP), are then applied as aqueous suspension or emulsion at a water application rate of 600 I/ha (converted) with the addition of 0.2% of wetting agent to the surface of the covering soil.
Following the treatment, the pots are placed in a greenhouse and kept under good growth conditions for the test plants. After about 3 weeks, the effect of the preparations is scored visually in comparison with untreated controls (herbicidal effect in percent (%): 100% effect=plants have died, 0% effect=as control plants).

[1] = test system: weed-grasses and broad-leaved weeds; experiment: Post-emergence herbicidal effect, greenhouse pot test; assay type: in vivo; conditions: application rate of 1 kg and less of active substance per hectare, scored after 3 weeks
Procedure: Seeds of monocotyledonous or dicotyledonous weed plants or crop plants are planted in wood-fiber pots in sandy loam, covered with soil and grown in a greenhouse under good growth conditions. 2 to 3 weeks after sowing, the test plants are treated in the one-leaf stage. The compounds according to the invention, formulated in the form of wettable powders (WP), are then sprayed onto the green plant parts as aqueous suspension or emulsion at a water application rate of 600 I/ha (converted) with the addition of 0.2% of wetting agent. After 3 weeks' standing time of the test plants in the greenhouse under optimum growth conditions, the effect of the preparations is scored visually in comparison with untreated controls (herbicidal effect in percent (%): 100% effect=plants have died, 0% effect=as control plants).

| Structure (SMILES) | herbicidal pre-emergence activity against a number of harmful plants (harmful plants) | post-emergence activity against a broad spectrum of weed-grasses and broad-leaved weeds [1] |
| --- | --- | --- |
| Cc1nn(-c2ccns2)c(-c2ccc(Br)s2)c1CC(=O)O [Compound 1-67] | good herbicidal pre-emergence activity | good post-emergence activity |
| Cc1nn(-c2ccns2)c(-c2ccc(Br)cn2)c1CC(=O)O [Compound 1-119] | good herbicidal pre-emergence activity | good post-emergence activity |
| COC(=O)Cc1c(C)nn(-c2ccns2)c1-c1ccccc1 [Compound 2-2] | good herbicidal pre-emergence activity | good post-emergence activity |
| COC(=O)Cc1c(C)nn(-c2ccns2)c1-c1ccc(Cl)cc1 [Compound 2-28] | good herbicidal pre-emergence activity | good post-emergence activity |
| COC(=O)Cc1c(C)nn(-c2ccns2)c1-c1ccc(Br)s1 [Compound 2-68] | good herbicidal pre-emergence activity | good post-emergence activity |
| COC(=O)Cc1c(C)nn(-c2ccns2)c1-c1ccccn1 [Compound 2-116] | good herbicidal pre-emergence activity | good post-emergence activity |
| COC(=O)Cc1c(C)nn(-c2ccns2)c1-c1ccc(Br)cn1 [Compound 2-120] | good herbicidal pre-emergence activity | good post-emergence activity |
| COC(=O)Cc1c(C)nn(-c2cc(C)ns2)c1-c1ccc(Cl)cc1 [Compound 2-147, Methyl[5-(4-chlorophenyl)-3-methyl-1-(3-methylisothiazol-5-yl)-1H-pyrazol-4-yl]acetate] | good herbicidal pre-emergence activity | good post-emergence activity |
| COC(=O)Cc1c(C)nn(-c2cnsc2)c1-c1ccccc1 [Compound 5-2] | good herbicidal pre-emergence activity | good post-emergence activity |
| COC(=O)Cc1c(C)nn(-c2cnsc2)c1-c1ccc(Cl)cc1 [Compound 5-28] | good herbicidal pre-emergence activity | good post-emergence activity |
| COC(=O)Cc1c(C)nn(-c2cnsc2)c1-c1ccccn1 [Compound 5-115] | good herbicidal pre-emergence activity | good post-emergence activity |
| COC(=O)Cc1c(C)nn(-c2cnsc2)c1-c1ccc(Cl)cn1 [Compound 5-116] | good herbicidal pre-emergence activity | good post-emergence activity |
| COC(=O)Cc1c(C)nn(-c2cnsc2)c1-c1ccc(Br)cn1 [Compound 5-119] | good herbicidal pre-emergence activity | good post-emergence activity |
| COC(=O)Cc1c(C)nn(-c2cnsc2)c1-c1ccc(F)cc1 [Compound 5-131] | good herbicidal pre-emergence activity | good post-emergence activity |
| COC(=O)Cc1c(C)nn(-c2cnsc2)c1-c1nc2ccccc2s1 [Compound 5-216] | good herbicidal pre-emergence activity | good post-emergence activity |
| COC(=O)Cc1c(C)nn(-c2cnsc2)c1-c1ncc(Br)cn1 [Compound 5-227] | good herbicidal pre-emergence activity | good post-emergence activity |
| COC(=O)Cc1c(C)nn(-c2cnsc2)c1-c1ccc2ccccc2n1 [Compound 5-239] | good herbicidal pre-emergence activity | good post-emergence activity |
| COC(=O)Cc1c(C)nn(-c2cnsc2)c1-c1cc2ccccc2cn1 [Compound 5-240] | good herbicidal pre-emergence activity | good post-emergence activity |
| Cc1nn(-c2cncs2)c(-c2ccc(Cl)cc2)c1CC(=O)O [Compound 7-29, [5-(4-Chlorophenyl)-3-methyl-1-(1,3-thiazol-5-yl)-1H-pyrazol-4-yl]acetic acid] | good herbicidal pre-emergence activity | good post-emergence activity |
| COC(=O)Cc1c(C)nn(-c2cncs2)c1-c1ccccc1 [Compound 8-2] | good herbicidal pre-emergence activity | good post-emergence activity |
| COC(=O)Cc1c(C)nn(-c2cncs2)c1-c1ccco1 [Compound 8-4] | good herbicidal pre-emergence activity | good post-emergence activity |
| COC(=O)Cc1c(C)nn(-c2cncs2)c1-c1ccc(C)cc1 [Compound 8-16] | good herbicidal pre-emergence activity | good post-emergence activity |
| COC(=O)Cc1c(C)nn(-c2cncs2)c1-c1ccc(Cl)cc1 [Compound 8-28, methyl[5-(4-chlorophenyl)-3-methyl-1-(1,3-thiazol-5-yl)-1H-pyrazol-4-yl]acetate] | good herbicidal pre-emergence activity | good post-emergence activity |
| COC(=O)Cc1c(C)nn(-c2cncs2)c1-c1ccc(C(F)(F)F)cc1 [Compound 8-32] | good herbicidal pre-emergence activity | good post-emergence activity |
| COC(=O)Cc1c(C)nn(-c2cncs2)c1-c1sccc1C [Compound 8-64] | good herbicidal pre-emergence activity | good post-emergence activity |
| COC(=O)Cc1c(C)nn(-c2cncs2)c1-c1ccc(Br)s1 [Compound 8-69] | good herbicidal pre-emergence activity | good post-emergence activity |
| COC(=O)Cc1c(C)nn(-c2cncs2)c1-c1ccccn1 [Compound 8-117] | good herbicidal pre-emergence activity | good post-emergence activity |
| COC(=O)Cc1c(C)nn(-c2cncs2)c1-c1ccc(Cl)cn1 [Compound 8-118] | good herbicidal pre-emergence activity | good post-emergence activity |
